From patent US20250213639A1 (U.S. NUTRACEUTICALS, INC., d/b/a Valensa International, priority 2021, published 2025)

Experiments:
[1] = tested on: normal mice; conditions: after about 20 days, normal shaved mice; cited from earlier work
[2] = target: T1, 5α-Reductase-1 (Homo sapiens, UniProt P18405); test: 5α-reductase inhibition by constituents of saw palmetto extract (FIGS. 2, 3), Type 1; assay type: biochemical
T1 sequence (P18405 1-259): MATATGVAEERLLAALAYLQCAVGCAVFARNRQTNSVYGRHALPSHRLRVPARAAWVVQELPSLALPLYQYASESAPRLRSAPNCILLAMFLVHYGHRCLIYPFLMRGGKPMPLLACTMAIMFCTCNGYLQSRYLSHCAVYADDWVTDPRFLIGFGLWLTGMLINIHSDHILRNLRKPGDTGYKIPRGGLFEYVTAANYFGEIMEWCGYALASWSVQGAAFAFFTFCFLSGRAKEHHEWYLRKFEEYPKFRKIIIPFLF

[3] = oral, guinea pigs, fur and skin; cited from earlier work
[4] = tested on: DHT; conditions: cited from earlier work
[5] = target: T2, 5α-Reductase-2 (Homo sapiens, UniProt P31213); test: 5α-reductase inhibition by constituents of saw palmetto extract (FIGS. 2, 3), Type 2; assay type: biochemical
T2 sequence (P31213 1-254): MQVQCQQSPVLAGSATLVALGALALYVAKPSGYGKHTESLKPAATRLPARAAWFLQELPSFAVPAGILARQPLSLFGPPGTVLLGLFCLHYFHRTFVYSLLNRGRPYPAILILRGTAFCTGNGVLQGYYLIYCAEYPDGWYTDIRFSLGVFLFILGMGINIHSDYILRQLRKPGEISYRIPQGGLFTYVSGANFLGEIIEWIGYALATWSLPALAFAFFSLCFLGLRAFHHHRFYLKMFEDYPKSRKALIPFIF

[6] = tested on: men with mild to moderate androgenic alopecia; conditions: 1 milligram per day, 24 months; cited from earlier work

Which hair growth [1] does the source give for CCCCC/C=C\C/C=C\CCCCCCCC(=O)O [linoleic acid] here?
The hair growth was “about 100%”.

What about the “effectiveness for 5α-Reductase-1” value [2] of the same compound?
The value was “beneficial for both”.

For CC/C=C\C/C=C\C/C=C\CCCCCCCC(=O)O [Linolenic acid], which “share of that lipid found in the free fatty acid form” value [3] is on record?
Its value is “Over 70%”.

Which “reduction of DHT levels in the entire body” value ([4]; in vivo) does the source give for C[C@]12C=CC(=O)N[C@@H]1CC[C@@H]1[C@@H]2CC[C@]2(C)[C@@H](C(=O)Nc3cc(C(F)(F)F)ccc3C(F)(F)F)CC[C@@H]12 [Dutasteride] here?
The value was “more than 99%”.

Which “effectiveness for 5α-Reductase-2” value [5] does the source give for CCCCCCCC/C=C\CCCCCCCC(=O)O [oleic acid] here?
Its value is “not as much”.

What about the “effectiveness for 5α-Reductase-1” value [2] of the same compound?
Its value is “especially effective”.

With CC(C)(C)NC(=O)[C@H]1CC[C@H]2[C@@H]3CC[C@H]4NC(=O)C=C[C@]4(C)[C@H]3CC[C@]12C [finasteride] as the compound, how does the “men who noted an improvement” value [6] read?
The value was 68%.

And the “decrease of the production of DHT” value ([4]; in some formulations)?
The value was “about 70%”.
